Measurements as given in ChEMBL document CHEMBL1158115, “Acylphloroglucinol derivatives from Hypericum prolificum” (J Nat Prod, 2006).
The source made the active and inactive calls. The rule behind the calls is not given here.

Assays:
[1] = tested on: MCF7; assay: Cytotoxicity against human MCF7 cells by MTT assay; assay type: functional, cell-based
[2] = tested on: NCI-H460; assay: Cytotoxicity against human NCI-H460 cells by MTT assay; assay type: functional, cell-based
[3] = tested on: SF-268; assay: Cytotoxicity against human SF-268 cells by MTT assay; assay type: functional, cell-based
[4] = tested on: AGS; assay: Cytotoxicity against human AGS cells by MTT assay; assay type: functional, cell-based
[5] = tested on: HCT-116; assay: Cytotoxicity against human HCT116 cells by MTT assay; assay type: functional, cell-based
[6] = biological target: T1, Prostaglandin G/H synthase 2 (Homo sapiens) (UniProt P35354); assay: Inhibition of cyclooxygenase 2 at 103.7 uM
T1 sequence (whole entry): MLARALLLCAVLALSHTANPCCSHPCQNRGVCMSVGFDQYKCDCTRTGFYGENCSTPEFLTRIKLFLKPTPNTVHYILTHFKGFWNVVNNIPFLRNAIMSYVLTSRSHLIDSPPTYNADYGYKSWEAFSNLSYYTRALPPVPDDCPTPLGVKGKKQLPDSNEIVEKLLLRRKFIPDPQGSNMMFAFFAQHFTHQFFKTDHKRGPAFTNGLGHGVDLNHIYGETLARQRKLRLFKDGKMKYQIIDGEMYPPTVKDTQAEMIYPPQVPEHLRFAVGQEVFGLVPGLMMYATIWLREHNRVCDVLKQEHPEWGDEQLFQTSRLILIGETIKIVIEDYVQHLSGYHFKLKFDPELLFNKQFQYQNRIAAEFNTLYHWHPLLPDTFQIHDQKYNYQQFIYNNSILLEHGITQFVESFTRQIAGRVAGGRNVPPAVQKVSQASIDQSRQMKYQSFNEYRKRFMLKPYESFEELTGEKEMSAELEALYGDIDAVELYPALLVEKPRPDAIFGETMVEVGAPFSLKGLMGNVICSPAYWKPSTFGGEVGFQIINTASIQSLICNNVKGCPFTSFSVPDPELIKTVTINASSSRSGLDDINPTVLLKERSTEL

[7] = biological target: Prostaglandin G/H synthase 1 (Homo sapiens) (UniProt P23219); assay: Inhibition of cyclooxygenase 1 at 103.7 uM
Chain of Prostaglandin G/H synthase 1 (Homo sapiens) (P23219 whole entry): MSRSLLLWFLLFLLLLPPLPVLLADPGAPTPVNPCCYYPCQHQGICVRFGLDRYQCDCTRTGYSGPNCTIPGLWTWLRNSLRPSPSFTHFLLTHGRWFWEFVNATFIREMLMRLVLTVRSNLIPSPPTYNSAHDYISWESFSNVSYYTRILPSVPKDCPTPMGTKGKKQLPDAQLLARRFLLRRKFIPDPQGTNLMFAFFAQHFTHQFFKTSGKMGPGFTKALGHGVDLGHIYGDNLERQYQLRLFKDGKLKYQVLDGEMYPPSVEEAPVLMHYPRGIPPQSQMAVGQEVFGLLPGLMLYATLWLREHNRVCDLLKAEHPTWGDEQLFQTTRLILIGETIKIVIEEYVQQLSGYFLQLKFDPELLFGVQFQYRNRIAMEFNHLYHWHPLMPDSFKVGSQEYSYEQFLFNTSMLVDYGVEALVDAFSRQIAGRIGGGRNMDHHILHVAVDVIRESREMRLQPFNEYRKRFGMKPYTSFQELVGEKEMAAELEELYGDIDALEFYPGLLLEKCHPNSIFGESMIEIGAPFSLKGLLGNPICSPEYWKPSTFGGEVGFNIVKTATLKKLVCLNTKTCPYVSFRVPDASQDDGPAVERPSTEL

Activity [6]	Activity [7]	Compound	IC50 [1] [µM]	IC50 [2] [µM]	IC50 [3] [µM]	IC50 [4] [µM]	IC50 [5] [µM]	Activity [1]	Activity [2]	Activity [3]	Activity [4]	Activity [5]
		COc1cccc2c1C(=O)c1c(O)c3c(c(O)c1C2=O)C[C@@](O)(C(=O)CO)C[C@@H]3O[C@H]1C[C@H](N)[C@H](O)[C@H](C)O1 [DOXORUBICIN]	0.43	0.66	1.55	0.31	0.41					
inactive	inactive	CCC(C)C(=O)C12C(=O)C=C(O)C(C[C@H](CC=C(C)C)[C@@]1(C)CC/C=C(\C)CCC=C(C)C)C2=O (stereo partly specified)						inactive	inactive	inactive	inactive	inactive
inactive	inactive	CCC(C)C(=O)c1c(O)cc(O)c2c1O[C@](C)(CC/C=C(\C)CCC=C(C)C)[C@@H](CC=C(C)C)C2 (stereo partly specified) [PROLIFICIN A]	23.7	29.9	30.9	32.4	35.1					
inactive	inactive	CC(C)=CCC/C(C)=C/CC[C@]1(C)[C@@H](CC=C(C)C)CC2C(=O)C1(C(=O)C(C)C)C(=O)C=C2O (stereo partly specified)						inactive	inactive	inactive	inactive	inactive
